Results published in BindingDB's records for doi:10.1021/jm00081a007 (Ohio State University, 1992).

Assays:
[1] = Inhibitory activity against U-46,619-induced responses in human platelet aggregation (Thromboxane A2 alpha receptor)
Thromboxane A2 receptor = biological target: T1, Thromboxane A2 receptor (Homo sapiens, UniProt P21731); assay: ChEBML_209427
T1 sequence (P21731 whole entry): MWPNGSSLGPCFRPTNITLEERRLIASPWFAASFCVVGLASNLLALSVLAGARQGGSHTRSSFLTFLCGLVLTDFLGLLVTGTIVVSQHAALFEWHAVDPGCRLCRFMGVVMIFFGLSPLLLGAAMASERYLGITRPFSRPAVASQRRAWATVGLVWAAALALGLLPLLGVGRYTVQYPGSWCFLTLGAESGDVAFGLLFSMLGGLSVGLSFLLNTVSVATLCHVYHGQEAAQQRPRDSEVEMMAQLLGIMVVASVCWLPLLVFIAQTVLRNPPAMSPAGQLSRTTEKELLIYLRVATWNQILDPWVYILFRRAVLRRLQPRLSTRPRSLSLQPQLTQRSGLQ
Text: Inhibitory activity against U-46,619-induced responses in human platelet aggregation (Thromboxane A2 alpha receptor)

COc1cc(C[C@H]2NCCc3cc(O)c(O)c(F)c32)cc(OC)c1OC [TMQ, R-(-)-8-Fluoro]
IC50 [1]: 2.46 µM

COc1cc(CC2NCCc3cc(O)c(O)c(I)c32)cc(OC)c1OC (stereo unspecified) [TMQ, 8-Iodo]
IC50 (Thromboxane A2 receptor): 3.09 µM

COc1cc(CC2NCCc3c(F)c(O)c(O)c(F)c32)cc(OC)c1OC (stereo unspecified) [TMQ, 5,8-Difluoro]
IC50 (Thromboxane A2 receptor): 158 µM

COc1cc(CC2NCCc3c2cc(O)c(O)c3I)cc(OC)c1OC (stereo unspecified) [TMQ, 5-Iodo]
IC50 (Thromboxane A2 receptor): 120 µM

COc1cc(CC2NCCc3c2cc(O)c(O)c3C(F)(F)F)cc(OC)c1OC (stereo unspecified) [TMQ, 5-TrifluoroMe]
IC50 (Thromboxane A2 receptor): 832 µM

COc1cc(C[C@@H]2NCCc3cc(O)c(O)c(F)c32)cc(OC)c1OC [TMQ, S-(+)-8-Fluoro]
IC50 [1]: 39.8 µM
